From article PMC11649918, “Development of a RIPK1 degrader to enhance antitumor immunity” (Nature Communications, 2024)
Residues, ends and D or L forms follow the SMILES beside them. *: point of attachment. Cbz = O=C(OCc1ccccc1)*; CH2F = FC*

What was measured:
[1] = target: T1, RIPK1 (Mus musculus, UniProt Q60855); test: RIPK1 degradation by Western blot in B16F10 cells; format: cell-based; details: 4 h pretreatment followed by LD4172
T1 construct: endogenous in cells; host or cells: B16F10
T1 sequence (Q60855 1-656): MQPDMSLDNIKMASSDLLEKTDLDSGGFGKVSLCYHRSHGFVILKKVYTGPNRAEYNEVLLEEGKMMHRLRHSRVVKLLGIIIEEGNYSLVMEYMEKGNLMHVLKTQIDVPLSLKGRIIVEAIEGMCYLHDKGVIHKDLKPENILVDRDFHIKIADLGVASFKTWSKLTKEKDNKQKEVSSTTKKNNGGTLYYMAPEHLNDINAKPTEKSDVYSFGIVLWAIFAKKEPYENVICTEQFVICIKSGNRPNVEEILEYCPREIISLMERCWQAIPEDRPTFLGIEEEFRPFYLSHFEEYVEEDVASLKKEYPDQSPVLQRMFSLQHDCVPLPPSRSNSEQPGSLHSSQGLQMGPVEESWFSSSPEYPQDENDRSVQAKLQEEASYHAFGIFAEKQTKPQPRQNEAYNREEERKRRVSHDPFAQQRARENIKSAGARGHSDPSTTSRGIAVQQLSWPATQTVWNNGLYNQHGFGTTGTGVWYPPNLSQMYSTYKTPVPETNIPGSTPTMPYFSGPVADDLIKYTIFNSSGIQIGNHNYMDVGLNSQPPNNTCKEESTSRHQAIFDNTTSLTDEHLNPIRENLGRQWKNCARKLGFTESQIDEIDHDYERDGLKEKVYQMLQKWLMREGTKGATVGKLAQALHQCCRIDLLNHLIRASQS
Description: (§1) Cells were seeded into six-well plates at a density of 5 × 10^5 cells/mL in 2 mL of complete culture medium. Following an overnight adaptation period, cells were treated with serially diluted LD4172 compounds for 24 h. After treatment, whole-cell lysates were prepared using a lysis buffer (1×RIPA supplemented with protease and phosphatase inhibitor cocktail). Protein concentrations in the lysates were measured using the BCA protein assay. Subsequently, equal amounts of protein (20 µg) from each sample were loaded onto a sodium dodecyl sulfate-polyacrylamide gel and separated by electrophoresis (Bio-Rad) at 120 V for 1.5 h. The separated proteins were then transferred to a polyvinylidene fluoride (PVDF) membrane using a Transblot Turbo system (Bio-Rad).
(§2) After blocking for 1 h at room temperature in 1% BSA-TBST, the membranes were incubated overnight at 4 °C with specific primary antibodies (diluted at 1:1000 in TBST) targeting the proteins of interest, including anti-RIPK1 (3493, Cell Signaling Technology (CST)), anti-cleaved caspase 3 (9661, CST), anti-cleaved caspase7 (8438, CST), anti-cleaved PARP (5625, CST), anti-HMGB1 (3935, CST), anti-calreticulin (12238, CST), and anti-β-actin (4970, CST). […] All western blots were processed and quantified using ImageJ software, and protein levels were normalized to β-actin loading controls.

[2] = target: T2, RIPK1 (Homo sapiens, UniProt Q13546); test: RIPK1 degradation by Western blot in Jurkat cells; format: cell-based; details: 4 h pretreatment followed by LD4172
T2 construct: whole-cell lysates were prepared using a lysis buffer; endogenous in cells; host or cells: Jurkat
T2 sequence (Q13546 1-671): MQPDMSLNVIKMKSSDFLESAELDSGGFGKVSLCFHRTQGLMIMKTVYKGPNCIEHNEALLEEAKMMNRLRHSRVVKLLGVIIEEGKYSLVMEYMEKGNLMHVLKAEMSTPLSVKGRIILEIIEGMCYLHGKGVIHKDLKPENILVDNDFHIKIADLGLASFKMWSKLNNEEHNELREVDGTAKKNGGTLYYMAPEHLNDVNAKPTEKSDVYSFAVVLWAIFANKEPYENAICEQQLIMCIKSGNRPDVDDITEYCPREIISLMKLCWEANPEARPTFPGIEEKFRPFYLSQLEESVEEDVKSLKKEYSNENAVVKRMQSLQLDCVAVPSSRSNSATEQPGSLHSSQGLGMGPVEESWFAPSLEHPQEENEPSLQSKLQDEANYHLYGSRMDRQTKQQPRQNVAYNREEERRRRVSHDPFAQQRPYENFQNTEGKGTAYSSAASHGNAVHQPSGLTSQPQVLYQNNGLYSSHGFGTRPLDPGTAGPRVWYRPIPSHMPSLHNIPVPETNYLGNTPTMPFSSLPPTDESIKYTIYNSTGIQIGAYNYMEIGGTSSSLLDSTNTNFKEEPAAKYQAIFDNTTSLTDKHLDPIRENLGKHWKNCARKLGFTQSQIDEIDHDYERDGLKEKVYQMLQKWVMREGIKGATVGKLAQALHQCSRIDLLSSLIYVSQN
Description: as §1, §2

[3] = test system: B16F10 cells; test: TNFα-mediated apoptosis in B16F10 cells (Annexin V/PI, caspase 3/7, PARP); format: cell-based, mouse; details: 72 h
Description: Fig. 3 LD4172 sensitizes B16F10 cells to TNFα-mediated apoptosis. B16F10 cells were treated with or without TNFα (100 ng/mL), Z-VAD-FMK (25 μM), LD4172 (1 μM), and/or T2I (1 μM) for 72 h. A NF-κB activity in B16F10 cells expressing a NanoLuc reporter for NF-κB response. Data represent the mean NF-κB activity ± SD (n = 3 biologically independent samples from two independent experiments). Statistical significance was determined using a two-tailed unpaired t-test, with P values indicated. B Representative flow cytometry dot plots showing apoptosis in B16F10 cells from three independent experiments (n = 3 biologically independent samples per experiment). […] Cell death was quantified by PI uptake using the Cytation 5 imager. D Top: Percentage of PI+ B16F10 cells after 72 h of the indicated treatments, calculated as PI+ (%) = (Number of PI+ cells/Total cells) × 100%, using the Cytation 5 imager. […] Statistical significance was determined using a two-tailed unpaired t-test, with P values indicated. […] E Top: Quantification of extracellular ATP levels secreted by B16F10 cells. Data represent mean extracellular ATP levels ± SD (n = 4 biologically independent samples from one experiment), with statistical significance determined by a two-tailed unpaired t-test, and P values indicated. […]

[4] = test system: NF-κB; test: NF-κB reporter assay in B16F10 cells; format: cell-based, mouse; details: TNFα 100 ng/mL, compound 1 μM
Description: One million B16F10 cells were seeded in T25 flask. The next day, cells were transfected with the NanoLuc Reporter Vector with NF-κB Response Element (pNL3.2.NF-kB-RE; Promega; Cat. No. N1111) using Lipofectamine 3000 transfection reagent (Invitrogen) at a ratio of 1:3, DNA:Lipofectamine. After 24 h, cells were collected and seeded at 2000 cells per well in triplicate in an opaque 96 well plate. 24 h later the media was discarded and replaced with fresh DMEM media and treated with indicated cytokine cocktail for 24 h. Reporter expression was read out using the Nano-Glo Luciferase Assay System (Promega) according to the manufacturer’s instruction.

[5] = test system: B16F10 tumors; test: B16F10 syngeneic tumor model; format: in vivo, C57BL/6J mice; details: compound 20 mg/kg i.p. daily plus anti-PD1 100 µg every 3 days
Description: To establish a syngeneic mouse model, 3 × 10^5 B16F10 cells resuspended in PBS were mixed 1:1 with Matrigel (354262, Corning) and subcutaneously injected into the right flank of 7-week-old wild-type female C57BL/6J mice on day 0. Tumor sizes were measured on day 6, and mice were grouped such that the average tumor volume was ~100 mm³. Treatments began on day 7. Antibodies, including anti-PD1 (100 μg, BE0146, BioXcell) and anti-CD8 (500 μg, BE0004, BioXcell), were administered intraperitoneally every 3 days in 100 μL volumes. The RIPK1 degrader LD4172 and RIPK1 kinase inhibitor T2I were delivered in 200 μL of vehicle solution (30% PEG400, 5% Tween-80, 5% DMSO) daily via intraperitoneal injection (20 mg/kg). T-cell depletion or blocking was confirmed by flow cytometry in tumor-bearing mice. Tumors were measured every 3 days starting from day 7 post-injection until euthanasia. Mice were euthanized via CO2 inhalation when the tumor size reached 1.5 cm in the longest dimension or if severe necrosis was observed. Tumor volume was calculated using the formula: (L × W ²)/2, where L represents the length and W the width. To comply with ethical guidelines and ensure data quality, animals were humanely euthanized either when tumors reached the maximum permitted size or immediately before flow cytometry analysis, which required fresh tumor tissues. […]

SMILES: CC(C)C[C@H](NC(=O)[C@H](CCc1ccccc1)NC(=O)CN1CCOCC1)C(=O)N[C@@H](Cc1ccccc1)C(=O)N[C@@H](CC(C)C)C(=O)[C@@]1(C)CO1 [carfilzomib]
- LD4172-induced RIPK1 degradation after pretreatment [1]: reversed
- LD4172-induced RIPK1 degradation after pretreatment [2]: reversed

SMILES: NS(=O)(=O)OC[C@@H]1C[C@@H](n2ccc3c(N[C@H]4CCc5ccccc54)ncnc32)C[C@@H]1O [MLN4924]
- LD4172-induced RIPK1 degradation after pretreatment [1]: reversed
- LD4172-induced RIPK1 degradation after pretreatment [2]: reversed

SMILES: CCn1cc(-c2ccc3c(c2)CCN3C(=O)Cc2cccc(OC(F)(F)F)c2)c2c(N)ncnc21 [T2I]
- TNFα-mediated apoptosis ([3]; TNFα 100 ng/mL, compound 1 μM): did not trigger TNFα-mediated apoptosis
- TNF-α-induced NF-κB activity [4]: not
- tumor response in combination with anti-PD1 [5]: failed to sensitize B16F10 tumors to anti-PD1 treatment

SMILES: COC(=O)C[C@H](NC(=O)[C@H](C)NC(=O)[C@@H](NC(=O)OCc1ccccc1)C(C)C)C(=O)CF [Z-VAD-FMK] (Cbz-Val-Ala-Asp(OMe)-CH2F)
- reversal of apoptosis induced by TNFα and LD4172 ([3]; Z-VAD-FMK 25 μM): reversed
